Laboratory results from the NIST ThermoML archive (doi:10.1021/je060271a).
Numbers after ± are expanded uncertainties.

Details: 323.14 K, Liquid, Vibrating tube method

CCCC(=O)OCC(COC(=O)CCC)(COC(=O)CCC)COC(=O)CCC [pentaerythritol tetrabutyrate]
Details | mass density [kg/m3]
3723.3 kPa | 1027.5 ± 1.2
3755.5 kPa | 1027.4 ± 1.2
3794.3 kPa | 1027.5 ± 1.2
3827.2 kPa | 1027.5 ± 1.2
3860.3 kPa | 1027.6 ± 1.2
3900.3 kPa | 1027.7 ± 1.2
3935 kPa | 1027.6 ± 1.2
3969.1 kPa | 1027.6 ± 1.2
4004.6 kPa | 1027.7 ± 1.2
4047.6 kPa | 1027.8 ± 1.2
4083.9 kPa | 1027.7 ± 1.2
4121.4 kPa | 1027.7 ± 1.2
4159.5 kPa | 1027.8 ± 1.2
4204 kPa | 1027.8 ± 1.2
4241.5 kPa | 1027.9 ± 1.2
4280.5 kPa | 1028 ± 1.2
4319.3 kPa | 1027.9 ± 1.2
4366.4 kPa | 1028 ± 1.2
4406.1 kPa | 1028 ± 1.2
4447.6 kPa | 1028.1 ± 1.2
4495.9 kPa | 1028 ± 1.2
4536.6 kPa | 1028.2 ± 1.2
4587.3 kPa | 1028.3 ± 1.2
4629.9 kPa | 1028.2 ± 1.2
4673.5 kPa | 1028.3 ± 1.2
4708.8 kPa | 1028.3 ± 1.2
4783.8 kPa | 1028.3 ± 1.2
4863.6 kPa | 1028.4 ± 1.2
4981.8 kPa | 1028.4 ± 1.2
5097.9 kPa | 1028.7 ± 1.2
5295.3 kPa | 1028.8 ± 1.2
5295.4 kPa | 1028.7 ± 1.2
5295.6 kPa | 1028.8 ± 1.2
5487.4 kPa | 1028.9 ± 1.2
5504.7 kPa | 1029 ± 1.2
5543.7 kPa | 1028.9 ± 1.2
12307 kPa | 1033.8 ± 1.2
12337 kPa | 1033.7 ± 1.2
14077 kPa | 1034.9 ± 1.2
14107 kPa | 1034.9 ± 1.2
14132 kPa | 1034.8 ± 1.2
14159 kPa | 1034.9 ± 1.2
14184 kPa | 1035 ± 1.2
14777 kPa | 1035.3 ± 1.2
16272 kPa | 1036.3 ± 1.2
16347 kPa | 1036.3 ± 1.2
16415 kPa | 1036.4 ± 1.2
16456 kPa | 1036.4 ± 1.2
16491 kPa | 1036.5 ± 1.2
16525 kPa | 1036.4 ± 1.2
16567 kPa | 1036.5 ± 1.2
16603 kPa | 1036.5 ± 1.2
16638 kPa | 1036.5 ± 1.2
16681 kPa | 1036.6 ± 1.2
16716 kPa | 1036.5 ± 1.2
16912 kPa | 1036.7 ± 1.2
16948 kPa | 1036.8 ± 1.2
16993 kPa | 1036.8 ± 1.2
17030 kPa | 1036.8 ± 1.2
17069 kPa | 1036.8 ± 1.2
17108 kPa | 1036.7 ± 1.2
17153 kPa | 1036.9 ± 1.2
17191 kPa | 1037 ± 1.2
17229 kPa | 1036.9 ± 1.2
17267 kPa | 1036.9 ± 1.2
17315 kPa | 1036.9 ± 1.2
17354 kPa | 1036.9 ± 1.2
17394 kPa | 1037 ± 1.2
17441 kPa | 1037.1 ± 1.2
17476 kPa | 1037 ± 1.2
17519 kPa | 1037.1 ± 1.2
17554 kPa | 1037.2 ± 1.2
17593 kPa | 1037 ± 1.2
17628 kPa | 1037.1 ± 1.2
